Some test systems named below: A549 NSCLC; BT-549 breast; HL-60(TB) leukemia; M14 melanoma; MDA-MB-231 breast; MOLT-4 leukemia; SN12C renal; T-47D breast.
What all share (assay): NCI tumour cell line growth inhibition, 48 h

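Interpolation was linear, between the two tested concentrations surrounding the appropriate level; five concentrations were tested over 48 hours in 96-well plates. Definition used: TGI = concentration required for complete inhibition of growth.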

Drawing on PubChem BioAssay (NCI), this text covers TGI for 16 compounds.

For `ClC1(Cl)C2CCOC21n1cnc2ccccc21` (stereo not drawn), the TGI in the assay with A549 NSCLC, with BT-549 breast, in the assay on HL-60(TB) leukemia, with M14 melanoma, in the assay on MDA-MB-231 breast and in the assay with MOLT-4 leukemia was above 100 µM in each case. Further, the TGI with SN12C renal and with T-47D breast was above 100 µM throughout.

As for `CCOC(=O)CCNC(=O)c1cc(C)cc2c1Oc1c(cc(C)cc1C(=O)NCCC(=O)OCC)S2`, the TGI in the assay with A549 NSCLC, with BT-549 breast, in the assay on HL-60(TB) leukemia, with M14 melanoma, with MDA-MB-231 breast and in the assay with MOLT-4 leukemia was above 100 µM throughout. Moreover, the TGI in the assay with SN12C renal and in the assay on T-47D breast was above 100 µM throughout.

For `Cc1nc2c(ccc3[nH]c4ccccc4c32)s1`, the TGI was above 100 µM in the assay on A549 NSCLC; 57.3 µM in the assay with BT-549 breast; above 100 µM in the assay on HL-60(TB) leukemia; 50.2 µM in the assay with M14 melanoma; 36.4 µM in the assay on MDA-MB-231 breast; 86.2 µM in the assay with MOLT-4 leukemia. Besides, the TGI in the assay on SN12C renal was 76.9 µM; with T-47D breast, above 100 µM.

Take `O=C1CSC2(CC(/C=C/c3ccccc3[N+](=O)[O-])=NN2c2cccc(S(=O)(=O)O)c2)N1c1nc2ccccc2s1` (stereo not drawn): the TGI was 52.9 µM with A549 NSCLC; 33.1 µM in the assay on BT-549 breast; 63.7 µM with HL-60(TB) leukemia; 60.7 µM with M14 melanoma; 32 µM in the assay with MDA-MB-231 breast; 52.4 µM in the assay with MOLT-4 leukemia. Moreover, the TGI in the assay with SN12C renal is 54.9 µM; in the assay with T-47D breast, 30.6 µM.

For `CNC(=S)c1nnsc1N`, the TGI with A549 NSCLC was above 100 µM; in the assay on BT-549 breast, above 100 µM; with HL-60(TB) leukemia, 0.0686 µM; in the assay on M14 melanoma, above 100 µM; in the assay with MDA-MB-231 breast, above 100 µM; in the assay on MOLT-4 leukemia, above 100 µM. The TGI with SN12C renal and in the assay with T-47D breast was above 100 µM each time.

Take `Cc1c(OCc2cccc3ccccc23)ccc2c(=O)cc(S)oc12`: the TGI was above 100 µM in the assay on A549 NSCLC; above 100 µM with BT-549 breast; 59.7 µM in the assay on HL-60(TB) leukemia; above 100 µM in the assay with M14 melanoma; above 100 µM in the assay on MDA-MB-231 breast; above 100 µM in the assay on MOLT-4 leukemia. Besides, the TGI in the assay with SN12C renal and with T-47D breast was above 100 µM each time.

Regarding `COC(=O)Cc1c(-c2c(CC(=O)OC)c3ccccc3n2C2OC(COC3OC(COC(C)=O)C(OC(C)=O)C(OC(C)=O)C3OC(C)=O)C(O)C(O)C2O)[nH]c2ccccc12` (stereo not drawn), the TGI in the assay with A549 NSCLC, with BT-549 breast, in the assay with HL-60(TB) leukemia, in the assay on M14 melanoma, with MDA-MB-231 breast and with MOLT-4 leukemia was above 100 µM in each case. The TGI in the assay on SN12C renal and in the assay with T-47D breast was above 100 µM each time.

As for `COc1ccc2oc(=O)c(-c3nc4ccccc4s3)cc2c1`, the TGI with A549 NSCLC was above 41.9 µM; in the assay with BT-549 breast it was above 100 µM; in the assay on HL-60(TB) leukemia, above 100 µM; in the assay with M14 melanoma it was above 58.3 µM; in the assay on MDA-MB-231 breast, 53.2 µM; in the assay on MOLT-4 leukemia, above 100 µM. Besides, the TGI in the assay with SN12C renal and with T-47D breast was above 100 µM each time.

Take `C/C(=N\Nc1nc2ccccc2[nH]1)c1ccc2ccccc2n1`: the TGI in the assay with A549 NSCLC was 10.2 µM; with BT-549 breast it was above 100 µM; in the assay with HL-60(TB) leukemia, 5.04 µM; with M14 melanoma it was 6.47 µM; with MDA-MB-231 breast, 12.5 µM; in the assay on MOLT-4 leukemia, 2.64 µM. For the same compound, the TGI was determined as 7.57 µM with SN12C renal and 3.74 µM with T-47D breast.

For `O=C1CN2CCN(CC2)CC(=O)Nc2ccc(cc2)S(=O)(=O)c2ccc(cc2)NC(=O)CN2CCN(CC2)CC(=O)Nc2ccc(cc2)S(=O)(=O)c2ccc(cc2)N1`, the TGI in the assay with A549 NSCLC is above 100 µM; with BT-549 breast it was above 87.9 µM; in the assay with HL-60(TB) leukemia, above 100 µM; with M14 melanoma, above 78.6 µM; in the assay on MDA-MB-231 breast it was 43.1 µM; in the assay on MOLT-4 leukemia, above 89 µM. The TGI in the assay on SN12C renal and with T-47D breast was above 100 µM throughout.

Consider `Cc1csc(CP(=O)(OC(C)C)OC(C)C)n1`, for which the TGI with A549 NSCLC, in the assay with BT-549 breast, in the assay with HL-60(TB) leukemia, with M14 melanoma, with MDA-MB-231 breast and with MOLT-4 leukemia was above 100 µM in each case. Also, the TGI in the assay on SN12C renal and in the assay with T-47D breast was above 100 µM each time.

As for `CCOC(=O)C1=CN(Cc2ccccc2)C2ON=C(c3ccc(Cl)cc3)C2C1` (stereo not drawn), the TGI in the assay with A549 NSCLC is above 59.6 µM; in the assay with BT-549 breast, above 56.4 µM; with HL-60(TB) leukemia it was above 47.1 µM; with M14 melanoma, above 66.9 µM; in the assay with MDA-MB-231 breast it was above 61.6 µM; with MOLT-4 leukemia it was above 100 µM. The TGI with SN12C renal was above 65.4 µM; with T-47D breast it was 15.2 µM.

For the compound `COc1ccc(C2=Nn3c(C)nnc3S/C2=C\c2ccc(-c3ccc([N+](=O)[O-])cc3)o2)cc1`, the TGI was 66.7 µM with A549 NSCLC; 19 µM in the assay with BT-549 breast; 73.5 µM in the assay on HL-60(TB) leukemia; 48.2 µM with M14 melanoma; above 100 µM in the assay with MDA-MB-231 breast; 18 µM in the assay with MOLT-4 leukemia. Further, the TGI was 33.6 µM in the assay with SN12C renal and above 100 µM with T-47D breast.

Regarding `C=C(C)[C@H]1C=C[C@@H](OC(C)=O)[C@@]2(COC(C)=O)[C@H](OC(=O)CCC)[C@H]3[C@@H](OC(C)=O)[C@@H](C)C[C@]3(O)C(=O)[C@@](C)(OC(C)=O)[C@H]12`, the TGI with A549 NSCLC, in the assay on BT-549 breast, in the assay with HL-60(TB) leukemia, in the assay on M14 melanoma, in the assay on MDA-MB-231 breast and with MOLT-4 leukemia was above 100 µM each time. In addition, the TGI was above 100 µM in the assay with SN12C renal and 89.7 µM with T-47D breast.

On to `O=[N+]([O-])C(=C(\Cl)NCCO)/C(Cl)=C(/Cl)Br`, for which the TGI with A549 NSCLC is 21.1 µM; with BT-549 breast, 4.2 µM; in the assay with HL-60(TB) leukemia it was 2.48 µM; with M14 melanoma it was 3.68 µM; in the assay with MDA-MB-231 breast, 3.99 µM; in the assay with MOLT-4 leukemia it was 2.93 µM. The TGI with SN12C renal was found to be 5.77 µM; in the assay with T-47D breast, 3.84 µM.

For the compound `O=c1oc2ccc([N+](=O)[O-])cc2cc1-c1csc(-c2ccccc2)n1`, the TGI in the assay on A549 NSCLC, with BT-549 breast, with HL-60(TB) leukemia, in the assay with M14 melanoma, in the assay with MDA-MB-231 breast and with MOLT-4 leukemia was above 100 µM throughout. The TGI with SN12C renal and in the assay on T-47D breast was above 100 µM throughout.
